The target of assay [1] is T1, bovine kidney tissue non-specific alkaline phosphatase (TNAP) (Bos taurus, UniProt P09487).
T1 construct: alkaline phosphatase (0.01 U/mL) from human placenta or bovine kidneys; from tissue; host or cells: bovine kidneys
T1 sequence (P09487 18-499 limits assumed): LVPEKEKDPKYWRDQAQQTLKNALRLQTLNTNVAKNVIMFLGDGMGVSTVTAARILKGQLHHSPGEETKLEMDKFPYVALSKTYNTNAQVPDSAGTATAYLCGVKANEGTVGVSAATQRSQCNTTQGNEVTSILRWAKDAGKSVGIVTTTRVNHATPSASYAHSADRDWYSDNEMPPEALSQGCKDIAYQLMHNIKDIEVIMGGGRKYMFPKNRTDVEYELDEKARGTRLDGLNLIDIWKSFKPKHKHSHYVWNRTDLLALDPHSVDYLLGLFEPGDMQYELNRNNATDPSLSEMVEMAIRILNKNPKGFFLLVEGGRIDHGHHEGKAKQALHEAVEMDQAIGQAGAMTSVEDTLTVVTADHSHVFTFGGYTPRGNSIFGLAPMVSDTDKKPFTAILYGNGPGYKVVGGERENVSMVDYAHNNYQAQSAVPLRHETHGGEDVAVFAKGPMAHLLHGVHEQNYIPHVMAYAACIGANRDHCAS
The assay is described as follows: Alkaline phosphatase assay (p-nitrophenyl phosphate), bovine kidney enzyme. The format is biochemical. As to the method: (§1) The levamisole derivatives were diluted to 2.5, 5 and 10 mM in DMSO. Samples (10 µL) and 90 µL solution of alkaline phosphatase (0.01 U/mL) from human placenta or bovine kidneys diluted in substrate buffer were added to a 96-well microtiter plate and incubated for 35 minutes at room temperature. Hereafter, 100 µL p-nitrophenyl phosphate (2 mg/mL) were added, and the plate was read at 405 nm with background subtraction at 650 nm on a Versamax Elisa reader (Molecular Devices, Sunnyvale, CA, USA) after 24 and 35 min. Results were obtained as the mean of double determinations. The EC50 values were read from the curve at half maximal absorbance.

Assay [2] addresses T2, human placenta alkaline phosphatase (HPAP) (Homo sapiens, UniProt P05187).
T2 construct: alkaline phosphatase (0.01 U/mL) from human placenta or bovine kidneys; from tissue; host or cells: human placenta
The assay is described as follows: Alkaline phosphatase assay (p-nitrophenyl phosphate), human placenta enzyme. The class given is biochemical. As to the method:
as §1

Assay [3] has as its system human umbilical vein endothelial cells (HUVECs) in co-culture with normal human dermal fibroblasts (NHDF). The assay is described as follows: in vitro angiogenesis assay, HUVEC-NHDF co-culture, CD31 immunostaining. The class given is cell-based. Particulars: for Grading / Morphology / Area % (percent of the area covered by HUVEC as observed by CD31 staining): 1 mM; for Area % (percent of the area covered by HUVEC as observed by CD31 staining): medium control 10.2, DMSO 8.4. As to the method:
The antiangiogenic effects of the compounds were determined in a previously developed assay, designed to evaluate the growth and differentiation of human umbilical vein endothelial cells (HUVECs) in co-culture with normal human dermal fibroblasts (NHDF). […] The cluster morphology known from (S)-levamisole, was also observed for tetramisole (2) (Figure 5B and Table 1), p-bromolevamisole (3) (Figure 5C and Table 1), and N-methyllevamisoles (7a, b), with the latter mentioned showing a slightly more pronounced effect (Figure 5E and F, Figure 6 A–D, Table 1). […] Compound 4 (Figure 5D and Table 1), on the other hand, inhibited the capillary network formation to give small cords exclusively, which is reminiscent of the effect of suramin (5) (Figure 5N and Table 1), another well-known angiogenesis inhibitor [44], [51].
Co-culture cell assays were performed according to a method described previously, [44]. Briefly, 10^3 NHDFs were cultured in each well of a 96-well microtiter plate in NHDF standard medium (100 μL, FGM-2 Bullet kit) at 37°C in an atmosphere containing 5% CO2. After 3 days the medium was removed and 10^3 HUVECs were seeded onto the NHDF in TFSM2 medium (135 μL). The samples of the individual compounds were prepared by weight and dissolved in a concentration of […] in DMSO, PBS, or Milli-Q water followed by pH adjustment, and sterile filtration through 0.22 μm filters. Medium, buffer controls or test samples of 15 µL were added to each well containing the HUVEC–NHDF co-culture and were incubated for 3 days. Experiments were repeated 2–4 times with identical results.
HUVEC and fibroblasts were stained with a CD31 antibody according to the method previously described, [44]. Briefly, the cells were washed with PBS, fixed with ethanol, blocked with TTN buffer, incubated with mouse anti-human CD31 diluted 1∶250 in TTN buffer, washed in TTN buffer and incubated with alkaline phosphatase-conjugated goat anti-mouse IgG diluted 1∶1000 in TTN buffer. Bound antibody was subsequently visualised with BCIP/NBT and inspected in an Olympus IX70 microscope and photographed with an Olympus DP12 digital camera (Magnification: 40x). Image analysis was carried out using the program AnalySIS (Soft Imaging Systems, Münster, Germany).

The subject of assay [4] is tumor growth. The settings on record: 12 mg/kg in nude mice; cited from earlier work.
Assay [5] addresses T3, sirtuin 1 (SIRT1) (Homo sapiens, UniProt Q96EB6).
T3 construct: purchased Biomol BML-AK555
The assay is described as follows: SIRT1 activation assay (Fluor-de-Lys fluorogenic). The format is biochemical. Particulars: Figure 7. As to the method:
The assay was essentially performed as described above for the deacetylase inhibition, but with different concentrations of enzyme and substrate [Fluor-de-Lys SIRT1 substrate (25 μM), NAD^+ (25 μM), SIRT1 (1 U/well)], and using resveratrol as positive control. Two individual assays were performed in duplicate.

Assay [6] concerns the target T3, sirtuin 1 (SIRT1). The assay is described as follows: SIRT1 inhibition assay (Fluor-de-Lys fluorogenic). The class given is biochemical. The protocol:
The assay was performed according to protocols provided by the supplier (Biomol, BML-AK555). Briefly, the dose–response experiments were performed in black low binding NUNC 96-well microtiter plates. The dilution series were prepared in Milli-Q water from 100 mM DMSO stock solutions. Fluor-de-Lys SIRT1 substrate (250 μM), NAD^+ ([…]), and SIRT1 (2 U/well) were incubated in SIRT assay buffer prepared as described in the Biomol product sheets [Tris/Cl (50 mM), NaCl (137 mM), KCl (2.7 mM), MgCl2 (1 mM), pH 8.0, 1 mg/mL bovine serum albumin] in the presence or absence of the appropriate dilution of compound 7a or suramin. After 1 hour at 37°C, nicotinamide (2 mM) and developer (50 μL, 2×) were added, and the assay development was allowed to proceed for 15–30 minutes at room temperature, before the plate was read using a Tecan plate reader with excitation at 360 nm and emission at 460 nm. Two individual assays were performed in duplicate.

Where a name gives a salt, the structure may show the parent alone.

T3 sequence (Q96EB6 whole entry): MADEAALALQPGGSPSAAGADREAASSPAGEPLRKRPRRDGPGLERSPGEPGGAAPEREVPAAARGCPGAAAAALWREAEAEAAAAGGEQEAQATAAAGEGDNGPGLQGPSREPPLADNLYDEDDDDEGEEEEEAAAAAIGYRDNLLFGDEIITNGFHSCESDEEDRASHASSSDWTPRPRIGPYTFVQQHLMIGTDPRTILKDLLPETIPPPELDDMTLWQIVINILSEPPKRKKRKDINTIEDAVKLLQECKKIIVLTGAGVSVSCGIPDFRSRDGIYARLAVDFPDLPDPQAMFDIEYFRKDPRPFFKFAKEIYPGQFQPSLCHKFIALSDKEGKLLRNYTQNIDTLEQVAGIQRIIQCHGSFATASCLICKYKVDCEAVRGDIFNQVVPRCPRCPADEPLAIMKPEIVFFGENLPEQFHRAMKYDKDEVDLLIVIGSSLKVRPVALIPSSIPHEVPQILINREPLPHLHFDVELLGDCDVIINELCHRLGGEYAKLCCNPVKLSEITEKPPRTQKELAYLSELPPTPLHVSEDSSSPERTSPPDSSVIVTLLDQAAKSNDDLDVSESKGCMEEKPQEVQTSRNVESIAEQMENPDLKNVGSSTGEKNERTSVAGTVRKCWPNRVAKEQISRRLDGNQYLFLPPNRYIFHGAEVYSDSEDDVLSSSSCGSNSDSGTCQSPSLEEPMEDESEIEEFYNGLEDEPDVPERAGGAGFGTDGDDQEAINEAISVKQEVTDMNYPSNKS
T2 sequence (P05187 23-506 limits assumed): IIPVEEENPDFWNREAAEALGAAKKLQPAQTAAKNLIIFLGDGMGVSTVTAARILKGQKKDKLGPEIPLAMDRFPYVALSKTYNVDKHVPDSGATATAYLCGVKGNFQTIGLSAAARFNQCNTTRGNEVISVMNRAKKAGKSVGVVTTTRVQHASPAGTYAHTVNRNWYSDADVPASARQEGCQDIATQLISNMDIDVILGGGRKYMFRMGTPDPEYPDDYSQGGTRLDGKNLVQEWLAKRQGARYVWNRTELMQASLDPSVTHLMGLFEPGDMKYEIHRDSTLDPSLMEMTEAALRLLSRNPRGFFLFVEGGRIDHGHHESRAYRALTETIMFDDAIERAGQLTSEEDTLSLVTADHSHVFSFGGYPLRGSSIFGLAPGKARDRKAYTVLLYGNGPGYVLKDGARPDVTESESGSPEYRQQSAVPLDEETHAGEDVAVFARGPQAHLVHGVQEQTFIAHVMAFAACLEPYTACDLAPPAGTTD

As for `c1ccc([C@H]2CN3CCSC3=N2)cc1` [Compound 1, (S)-levamisole hydrochloride, reference compound], the IC50 in assay [1] was found to be 600 µM. Moreover, in assay [2], inhibition was half-maximal at 1100 µM (IC50). In assay [3], the Grading entry was “++ (clusters with area >4%)”, the Morphology entry is recorded as “Clusters” and the “Area % (percent of the area covered by HUVEC as observed by CD31 staining)” value came out at 7.5%. In assay [4], the tumor growth inhibition entry was “significant tumor growth inhibition”.
Regarding `C[N+]1=C2SCCN2C[C@@H]1c1ccccc1` [Compound 7a, N-methyllevamisole triflate], inhibition in assay [1] was half-maximal at 100 µM (IC50). In addition, in assay [2], the 50% inhibitory concentration (IC50) was > 2000 µM. The “activation of SIRT1 compared to resveratrol” value in assay [5] is “ruled out interaction with this regulatory enzyme”. Further, the “SIRT1 inhib. (1 μM)” value in assay [6] (1 μM) is “Not active^b”. Further, in assay [6] (at 10 μM and 100 μM, data not shown), the “deacetylation compared to the control wells” value is “elevated values of deacetylation”. For the same compound, the “inhibition of SIRT1 deacetylase activity” value in assay [6] (standard fluorogenic assay in vitro) was “no inhibitory effect”. Further, in assay [3], the Grading result is listed as “++++ (clusters with area <4%)”, the Morphology entry was “Clusters” and the “Area % (percent of the area covered by HUVEC as observed by CD31 staining)” value turned out to be 2.8%. The “inhibition of angiogenesis compared with (S)-levamisole hydrochloride (1)” value in assay [3] (Figure 5, Table 1) is “more potent than (S)-levamisole hydrochloride”. Also, the “concentration at which the cluster-inducing effect is already exerted (titration)” value in assay [3] (titration experiments, Figure 6F) worked out at 30 µM.

By IC50 is commonly meant the concentration at which inhibition is half-maximal. Lower therefore signals higher potency.

Values taken from PMC3443238, “Synthesis and Antiangiogenic Activity of N-Alkylated Levamisole Derivatives” (PLoS ONE, 2012).
